Reference: patent US9670162B2, “Mitochondrial aldehyde dehyrogenase-2 modulators and methods of use thereof” (The Board of Trustees of the Leland Stanford Junior …, priority 2013, dated 2017)

Tests used:
[1] = Caco-2 permeability; assay type: in vitro ADME; conditions: human
Protocol: (§1) In vitro ADMET of compounds of the present disclosure was carried out according to known methods in the art. Below are data for certain compounds of the present disclosure.

[2] = Plasma protein binding (PPB), rat; assay type: in vitro ADME
Protocol: as §1

[3] = Plasma stability, human; assay type: in vitro ADME
Protocol: as §1

[4] = target: T1, CYP1A2 (Homo sapiens, UniProt P05177); test: Cyp inhibition 1A2; assay type: in vitro ADME; set-up: inhibition: dose or concentration left out as unconfirmed
T1 sequence (P05177 1-516): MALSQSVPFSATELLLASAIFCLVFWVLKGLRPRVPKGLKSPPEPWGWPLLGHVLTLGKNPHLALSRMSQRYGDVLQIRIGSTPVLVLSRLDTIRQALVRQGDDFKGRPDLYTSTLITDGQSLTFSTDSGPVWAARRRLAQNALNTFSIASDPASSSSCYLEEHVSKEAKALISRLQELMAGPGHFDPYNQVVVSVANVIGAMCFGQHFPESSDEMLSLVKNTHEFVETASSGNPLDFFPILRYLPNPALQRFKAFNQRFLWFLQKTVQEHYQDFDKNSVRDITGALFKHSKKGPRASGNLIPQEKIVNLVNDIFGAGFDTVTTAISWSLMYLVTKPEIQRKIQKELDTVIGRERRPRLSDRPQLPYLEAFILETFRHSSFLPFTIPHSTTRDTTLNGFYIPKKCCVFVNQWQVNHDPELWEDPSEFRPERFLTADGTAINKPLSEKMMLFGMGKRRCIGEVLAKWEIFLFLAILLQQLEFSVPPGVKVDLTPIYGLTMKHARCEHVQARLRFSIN
Protocol: as §1

[5] = RLM stability T1/2; assay type: in vitro ADME; conditions: rat, liver microsomes
Protocol: as §1

[6] = Plasma protein binding (PPB), human; assay type: in vitro ADME
Protocol: as §1

[7] = HLM stability T1/2; assay type: in vitro ADME; conditions: human, liver microsomes; read-out: metabolism (HLM, t1/2)
Protocol: as §1

[8] = target: T2, human ALDH2 wild type (Homo sapiens, UniProt P05091); test: ALDH2 enzymatic assay (NADH at 340 nm), recombinant wild type enzyme; assay type: biochemical; set-up: key: −: no activation or inhibition; +: activation less than control 1; ++: activation similar to control 1, within 10%; +++: activation more than control 1 and less than control (compound 161); ++++: activation similar to compound 161, within 10%; conditions: activation relative to benchmarks control 1 and compound 161
T2 construct: His-tag (pTrcHis vector) (N); made in house; host or cells: E. coli BL21
T2 sequence (P05091 18-517): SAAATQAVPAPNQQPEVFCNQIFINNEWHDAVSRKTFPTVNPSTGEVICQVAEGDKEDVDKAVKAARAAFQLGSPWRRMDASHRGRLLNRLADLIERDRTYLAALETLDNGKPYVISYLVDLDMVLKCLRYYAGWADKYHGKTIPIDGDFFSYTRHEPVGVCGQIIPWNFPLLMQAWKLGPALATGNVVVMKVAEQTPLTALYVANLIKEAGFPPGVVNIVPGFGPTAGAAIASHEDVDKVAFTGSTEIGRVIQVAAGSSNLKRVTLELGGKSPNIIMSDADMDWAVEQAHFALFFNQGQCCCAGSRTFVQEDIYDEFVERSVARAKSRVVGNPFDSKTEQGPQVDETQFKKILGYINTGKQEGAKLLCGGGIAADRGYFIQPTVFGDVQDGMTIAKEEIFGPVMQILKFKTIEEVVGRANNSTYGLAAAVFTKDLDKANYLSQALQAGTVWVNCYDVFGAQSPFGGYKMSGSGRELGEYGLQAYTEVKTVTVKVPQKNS

COc1ccc(CNC(=O)c2c(Cl)ccnc2OCC2CC2)cc1F [Compound 161]
Papp A→B ([1]; A-B, read-out: absorption (Caco-2, Papp, A-B)): 15.7 ×10⁻⁶ cm/s | Papp B→A ([1]; B-A): 10.7 ×10⁻⁶ cm/s | efflux ratio ([1]; ratio, read-out: Caco-2 Papp B-A/A-B): 0.68 | fraction unbound [2]: 0.039 | plasma stability (human, 5 h) ([3]; 5 h): 100% | Plasma stability Human ([3]; plasma): 100% | inhibition [4]: 35% | inhibition at 10 µM ([4]; 10 μM): 35.2% | half-life [5]: 0.974 min | fraction unbound [6]: 0.007 | half-life [7]: 12.4 min | ALDH2 (wild-type) [8]: ++++
